Assay results as given in ChEMBL document CHEMBL1255175, “Synthesis, antimicrobial, and mosquito larvicidal activity of 1-aryl-4-methyl-3,6-bis-(5-methylisoxazol-3-yl)-2-thioxo-2,3,6,10b-tetrahydro-1H-pyrimido[5,4-c]quinolin-5-ones” (2010).
Converted amounts (≈) assume the structure as drawn.

How the values were obtained:
Assay type in all cases: functional
[1] = tested on: Lysinibacillus sphaericus; test: Antimicrobial activity against Bacillus sphaericus MTCC 511
Rhizopus arrhizus [2] = test: Antifungal activity against Rhizopus oryzae MTCC 262 at 100 ug/ml; details: read-out: DIZ
Rhizopus arrhizus [3] = test: Antifungal activity against Rhizopus oryzae MTCC 262 at 30 ug/ml; details: read-out: DIZ
Pseudomonas aeruginosa = test: Antimicrobial activity against Pseudomonas aeruginosa MTCC 741
[4] = Antifungal activity against Chrysosporium tropicum MTCC 2821 at 30 ug/ml
Curvularia lunata [5] = test: Antifungal activity against Curvularia lunata MTCC 2030 at 100 ug/ml; details: read-out: DIZ
Aspergillus niger [6] = test: Antifungal activity against Aspergillus niger MTCC 282 at 30 ug/ml; details: read-out: DIZ
Fusarium verticillioides [7] = test: Antifungal activity against Fusarium moniliforme MTCC 1848 at 100 ug/ml; details: read-out: DIZ
[8] = tested on: Chromobacterium violaceum; test: Antimicrobial activity against Chromobacterium violaceum MTCC 2656
Staphylococcus aureus = test: Antimicrobial activity against Staphylococcus aureus MTCC 96
Aspergillus niger [9] = test: Antifungal activity against Aspergillus niger MTCC 282 at 100 ug/ml; details: read-out: DIZ
Bacillus subtilis = test: Antimicrobial activity against Bacillus subtilis MTCC 441
Fusarium verticillioides [10] = test: Antifungal activity against Fusarium moniliforme MTCC 1848 at 30 ug/ml; details: read-out: DIZ
Curvularia lunata [11] = test: Antifungal activity against Curvularia lunata MTCC 2030 at 30 ug/ml; details: read-out: DIZ
Culex quinquefasciatus = test: Insecticidal activity against Culex quinquefasciatus 4th instar larvae; details: for LC50: Culex quinquefasciatus
Klebsiella aerogenes = test: Antimicrobial activity against Klebsiella aerogenes MTCC 39
[12] = Antifungal activity against Chrysosporium tropicum MTCC 2821 at 100 ug/ml

Row | SMILES | MIC [1] [mg/L] | zone of inhibition at 100 µg/mL (Rhizopus arrhizus [2]) [mm] | zone of inhibition at 30 µg/mL (Rhizopus arrhizus [3]) [mm] | MIC (Pseudomonas aeruginosa) [mg/L] | inhibition zone (IZ) [4] [mm] | zone of inhibition at 100 µg/mL (Curvularia lunata [5]) [mm] | zone of inhibition at 30 µg/mL (Aspergillus niger [6]) [mm] | zone of inhibition at 100 µg/mL (Fusarium verticillioides [7]) [mm] | MIC [8] [mg/L] | MIC (Staphylococcus aureus) [mg/L] | zone of inhibition at 100 µg/mL (Aspergillus niger [9]) [mm] | MIC (Bacillus subtilis) [mg/L] | zone of inhibition at 30 µg/mL (Fusarium verticillioides [10]) [mm] | zone of inhibition at 30 µg/mL (Curvularia lunata [11]) [mm] | LC90 (Culex quinquefasciatus) [mg/L] | LC50 (Culex quinquefasciatus) [mg/L] | MIC (Klebsiella aerogenes) [mg/L] | inhibition zone (IZ) [12] [mm]
1 | CC1=C2C(=O)N(c3cc(C)on3)c3ccccc3C2N(Cc2ccccc2)C(=S)N1c1cc(C)on1 (stereo not given) | 18 (≈ 36.2 µM) | 59 | 35 | 20 (≈ 40.2 µM) | 30 | 55 | 31 | 55 | 18 (≈ 36.2 µM) | 25 (≈ 50.2 µM) | 61 | 22 (≈ 44.2 µM) | 32 | 30 | 1.59 (≈ 3.2 µM) | 2.27 (≈ 4.56 µM) | 15 (≈ 30.1 µM) | –
2 | CC1=C2C(=O)N(c3cc(C)on3)c3ccccc3C2N(c2ccccc2Cl)C(=S)N1c1cc(C)on1 (stereo not given) | 10 (≈ 19.3 µM) | 50 | 35 | 5 (≈ 9.65 µM) | 25 | 55 | 30 | 45 | 6 (≈ 11.6 µM) | 9 (≈ 17.4 µM) | 55 | 8 (≈ 15.4 µM) | 30 | 40 | 1 (≈ 1.93 µM) | 0.98 (≈ 1.89 µM) | 8 (≈ 15.4 µM) | 40
3 | CC1=C2C(=O)N(c3cc(C)on3)c3ccccc3C2N(c2ccc(Br)cc2)C(=S)N1c1cc(C)on1 (stereo not given) | 8 (≈ 14.2 µM) | 45 | 39 | 9 (≈ 16 µM) | 25 | 45 | 40 | 40 | 5 (≈ 8.89 µM) | 9 (≈ 16 µM) | 50 | 6 (≈ 10.7 µM) | 25 | 35 | 1.8 (≈ 3.2 µM) | 0.88 (≈ 1.56 µM) | 7 (≈ 12.4 µM) | 45
4 | Clc1ccccc1C(c1ccccc1)(c1ccccc1)n1ccnc1 [CLOTRIMAZOLE] | – | 33 | – | – | – | 35 | – | 25 | – | – | 26 | – | – | – | – | – | – | 30
5 | CC1=C2C(=O)N(c3cc(C)on3)c3ccccc3C2N(c2ccc(C)cc2)C(=S)N1c1cc(C)on1 (stereo not given) | 11 (≈ 22.1 µM) | 65 | 45 | 10 (≈ 20.1 µM) | 40 | 65 | 40 | 60 | 6 (≈ 12.1 µM) | 10 (≈ 20.1 µM) | 60 | 16 (≈ 32.2 µM) | 45 | 45 | 2.41 (≈ 4.84 µM) | 0.85 (≈ 1.71 µM) | 8 (≈ 16.1 µM) | –
6 | COc1cccc(N2C(=S)N(c3cc(C)on3)C(C)=C3C(=O)N(c4cc(C)on4)c4ccccc4C32)c1 (stereo not given) | 18 (≈ 35 µM) | 65 | 40 | 8 (≈ 15.6 µM) | 28 | 55 | 20 | 60 | 11 (≈ 21.4 µM) | 12 (≈ 23.4 µM) | 40 | 18 (≈ 35 µM) | 35 | 35 | 2.41 (≈ 4.69 µM) | 1.25 (≈ 2.43 µM) | 13 (≈ 25.3 µM) | 40
7 | CC1=C2C(=O)N(c3cc(C)on3)c3ccccc3C2N(c2ccccc2)C(=S)N1c1cc(C)on1 (stereo not given) | 15 (≈ 31 µM) | 50 | 40 | 20 (≈ 41.4 µM) | 30 | 40 | 25 | 45 | 18 (≈ 37.2 µM) | 15 (≈ 31 µM) | 45 | 19 (≈ 39.3 µM) | 30 | 35 | 3.1 (≈ 6.41 µM) | 1.02 (≈ 2.11 µM) | 13 (≈ 26.9 µM) | 45
8 | O=C(O)c1cn(C2CC2)c2cc(N3CCNCC3)c(F)cc2c1=O [CIPROFLOXACIN] | 20 (≈ 60.4 µM) | – | – | 30 (≈ 90.5 µM) | – | – | – | – | 25 (≈ 75.4 µM) | – | – | 20 (≈ 60.4 µM) | – | – | – | – | – | –
9 | CC1=C2C(=O)N(c3cc(C)on3)c3ccccc3C2N(c2ccc(Cl)cc2)C(=S)N1c1cc(C)on1 (stereo not given) | 15 (≈ 29 µM) | 50 | 40 | 20 (≈ 38.6 µM) | 30 | 50 | 25 | 45 | 13 (≈ 25.1 µM) | 15 (≈ 29 µM) | 40 | 16 (≈ 30.9 µM) | 30 | 35 | 4 (≈ 7.72 µM) | 1.01 (≈ 1.95 µM) | 15 (≈ 29 µM) | 45
10 | COc1ccc(N2C(=S)N(c3cc(C)on3)C(C)=C3C(=O)N(c4cc(C)on4)c4ccccc4C32)cc1 (stereo not given) | 15 (≈ 29.2 µM) | 65 | 45 | 15 (≈ 29.2 µM) | 40 | 60 | 35 | 60 | 18 (≈ 35 µM) | 10 (≈ 19.5 µM) | 60 | 20 (≈ 38.9 µM) | 35 | 40 | 3.65 (≈ 7.11 µM) | 2.09 (≈ 4.07 µM) | 14 (≈ 27.3 µM) | –
